{"source": "ChEMBL document CHEMBL5113526", "about": "“Design, Synthesis, and Biological Evaluation of Androgen Receptor Degrading and Antagonizing Bifunctional Steroidal Analogs for the Treatment of Advanced Prostate Cancer” (J Med Chem, 2022)", "key": {"[1]": {"target": "Voltage-gated inwardly rectifying potassium channel KCNH2 (Homo sapiens, UniProt Q12809)", "sequence (Q12809 whole entry)": "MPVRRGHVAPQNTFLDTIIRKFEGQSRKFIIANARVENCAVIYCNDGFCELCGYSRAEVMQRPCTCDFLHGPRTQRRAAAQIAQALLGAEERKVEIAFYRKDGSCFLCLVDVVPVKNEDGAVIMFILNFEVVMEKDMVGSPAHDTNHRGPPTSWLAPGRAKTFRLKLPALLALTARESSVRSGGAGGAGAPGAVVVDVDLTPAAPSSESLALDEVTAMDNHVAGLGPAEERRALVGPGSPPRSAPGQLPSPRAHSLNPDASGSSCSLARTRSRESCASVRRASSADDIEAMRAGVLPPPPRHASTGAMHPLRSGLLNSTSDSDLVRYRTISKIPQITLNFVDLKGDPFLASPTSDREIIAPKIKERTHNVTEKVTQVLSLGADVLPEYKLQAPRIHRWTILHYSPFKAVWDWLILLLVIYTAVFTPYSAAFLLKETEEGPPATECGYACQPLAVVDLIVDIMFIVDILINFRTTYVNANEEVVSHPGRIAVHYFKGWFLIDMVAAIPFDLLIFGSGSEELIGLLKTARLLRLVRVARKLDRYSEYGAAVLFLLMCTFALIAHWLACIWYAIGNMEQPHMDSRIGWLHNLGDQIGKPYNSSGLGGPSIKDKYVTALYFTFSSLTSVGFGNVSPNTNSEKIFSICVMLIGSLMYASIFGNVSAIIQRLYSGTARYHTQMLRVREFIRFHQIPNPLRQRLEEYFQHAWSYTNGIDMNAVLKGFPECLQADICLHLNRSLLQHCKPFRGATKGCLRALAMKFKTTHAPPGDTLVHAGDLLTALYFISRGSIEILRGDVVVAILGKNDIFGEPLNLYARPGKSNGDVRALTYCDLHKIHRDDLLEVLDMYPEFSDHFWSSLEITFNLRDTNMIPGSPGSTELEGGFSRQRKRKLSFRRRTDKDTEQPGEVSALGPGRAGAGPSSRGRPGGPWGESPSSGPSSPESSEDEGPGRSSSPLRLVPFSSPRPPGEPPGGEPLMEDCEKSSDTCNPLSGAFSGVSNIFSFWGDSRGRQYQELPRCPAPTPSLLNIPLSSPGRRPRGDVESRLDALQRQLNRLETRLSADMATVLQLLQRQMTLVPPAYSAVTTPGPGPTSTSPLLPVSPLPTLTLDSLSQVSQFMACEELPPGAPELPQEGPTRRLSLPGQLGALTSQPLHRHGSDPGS", "test": "Inhibition of hERG potassium channel at -80 mV holding potential incubated for 3 mins by automated patch clamp method", "type": "toxicity"}, "[2]": {"test": "Tmax in Sprague-Dawley rat at 10 mg/kg, po measured up to 24 hrs by LC-MS/MS analysis", "type": "ADME, organism-based", "conditions": "in vivo"}, "[3]": {"test": "Terminal half life in Sprague-Dawley rat at 10 mg/kg, po measured up to 24 hrs by LC-MS/MS analysis", "type": "ADME, organism-based", "conditions": "in vivo, read-out: beta t1/2 (converted)"}, "LNCaP [4]": {"system": "LNCaP", "test": "Antiproliferative activity against human LNCAP cells assessed as reduction in cell viability at 10 uM measured after 6 days by CellTiterGlo assay relative to control", "type": "functional", "conditions": "time 6 day; for inhibition at 10 µM: Homo sapiens, LNCaP"}, "LNCaP [5]": {"system": "LNCaP", "test": "cells", "conditions": "Homo sapiens", "description": "Antiproliferative activity against human LNCAP cells assessed as reduction in cell viability measured after 6 days by CellTiter-Glo assay"}, "Androgen receptor [6]": {"target": "T1, Androgen receptor (Homo sapiens, UniProt P10275)", "T1 sequence (P10275 whole entry)": "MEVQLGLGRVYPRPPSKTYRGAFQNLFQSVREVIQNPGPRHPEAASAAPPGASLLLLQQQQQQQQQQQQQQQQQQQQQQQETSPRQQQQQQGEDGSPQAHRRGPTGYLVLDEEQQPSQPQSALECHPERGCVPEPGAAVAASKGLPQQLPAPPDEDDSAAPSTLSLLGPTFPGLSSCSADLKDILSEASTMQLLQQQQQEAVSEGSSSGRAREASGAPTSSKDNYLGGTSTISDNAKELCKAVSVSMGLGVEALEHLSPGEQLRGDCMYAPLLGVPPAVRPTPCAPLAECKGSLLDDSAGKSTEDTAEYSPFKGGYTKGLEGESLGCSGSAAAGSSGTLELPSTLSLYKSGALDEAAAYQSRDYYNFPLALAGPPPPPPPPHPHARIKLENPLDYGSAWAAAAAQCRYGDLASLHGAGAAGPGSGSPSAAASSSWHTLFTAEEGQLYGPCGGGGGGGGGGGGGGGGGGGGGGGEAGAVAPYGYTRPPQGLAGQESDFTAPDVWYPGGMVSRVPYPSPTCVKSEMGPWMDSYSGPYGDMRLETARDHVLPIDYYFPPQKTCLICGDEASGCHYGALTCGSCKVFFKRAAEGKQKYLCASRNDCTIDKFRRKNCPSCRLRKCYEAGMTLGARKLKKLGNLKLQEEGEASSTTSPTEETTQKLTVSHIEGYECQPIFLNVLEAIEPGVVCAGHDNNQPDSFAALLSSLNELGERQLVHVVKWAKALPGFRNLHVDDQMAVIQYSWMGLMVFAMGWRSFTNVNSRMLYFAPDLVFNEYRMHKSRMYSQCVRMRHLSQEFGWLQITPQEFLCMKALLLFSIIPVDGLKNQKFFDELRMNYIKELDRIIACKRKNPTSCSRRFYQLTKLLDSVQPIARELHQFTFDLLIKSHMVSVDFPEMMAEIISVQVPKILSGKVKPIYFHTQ", "test": "Antagonist activity at DHT-induced Androgen receptor transcriptional activity in human HEK293 cells measured after 24 hrs by Steady-Glo reagent based assay", "type": "cell-based"}, "[7]": {"test": "AUC (0 to t) in Sprague-Dawley rat at 10 mg/kg, po measured up to 24 hrs by LC-MS/MS analysis", "type": "ADME, organism-based", "set-up": "time < 24 hrs, dose 10 mg/kg, route po", "conditions": "in vivo"}, "[8]": {"test": "Cmax in Sprague-Dawley rat at 10 mg/kg, po measured up to 24 hrs by LC-MS/MS analysis", "type": "ADME, organism-based", "set-up": "dose 10 mg/kg, time < 24 hrs, route po", "conditions": "in vivo"}, "[9]": {"test": "Inhibition of TP-stimulated andogen-sensitive seminal vesicle growth in castrated Sprague-Dawley rat at 20 mg/kg, po administered for 10 days and measured after 24 hrs last post dose by hershberger assay relative to control", "type": "functional", "conditions": "[…]"}, "[10]": {"test": "Inhibition of TP-stimulated andogen-sensitive ventral prostate growth in castrated Sprague-Dawley rat at 20 mg/kg, po administered for 10 days and measured after 24 hrs last post dose by hershberger assay relative to control", "type": "functional", "conditions": "time 10 day"}, "CWR22R [11]": {"system": "CWR22R", "test": "Antiproliferative activity against human 22Rv1 cells expressing AR-v7 assessed as reduction in cell viability measured after 6 days by CTG assay", "type": "functional, cell-based"}, "[12]": {"test": "Toxicity in castrated BALB/c nude mouse xenografted with enzalutamide-resisitant human C4-2B cells assessed as body weight loss at 30 mg/kg, po qd measured after 28 days", "type": "organism-based, LNCaP C4-2B", "conditions": "in vivo, 672 h, time 28 day"}, "Androgen receptor [13]": {"target": "Androgen receptor (Homo sapiens, UniProt P10275, T878A)", "sequence (P10275 whole entry T878A)": "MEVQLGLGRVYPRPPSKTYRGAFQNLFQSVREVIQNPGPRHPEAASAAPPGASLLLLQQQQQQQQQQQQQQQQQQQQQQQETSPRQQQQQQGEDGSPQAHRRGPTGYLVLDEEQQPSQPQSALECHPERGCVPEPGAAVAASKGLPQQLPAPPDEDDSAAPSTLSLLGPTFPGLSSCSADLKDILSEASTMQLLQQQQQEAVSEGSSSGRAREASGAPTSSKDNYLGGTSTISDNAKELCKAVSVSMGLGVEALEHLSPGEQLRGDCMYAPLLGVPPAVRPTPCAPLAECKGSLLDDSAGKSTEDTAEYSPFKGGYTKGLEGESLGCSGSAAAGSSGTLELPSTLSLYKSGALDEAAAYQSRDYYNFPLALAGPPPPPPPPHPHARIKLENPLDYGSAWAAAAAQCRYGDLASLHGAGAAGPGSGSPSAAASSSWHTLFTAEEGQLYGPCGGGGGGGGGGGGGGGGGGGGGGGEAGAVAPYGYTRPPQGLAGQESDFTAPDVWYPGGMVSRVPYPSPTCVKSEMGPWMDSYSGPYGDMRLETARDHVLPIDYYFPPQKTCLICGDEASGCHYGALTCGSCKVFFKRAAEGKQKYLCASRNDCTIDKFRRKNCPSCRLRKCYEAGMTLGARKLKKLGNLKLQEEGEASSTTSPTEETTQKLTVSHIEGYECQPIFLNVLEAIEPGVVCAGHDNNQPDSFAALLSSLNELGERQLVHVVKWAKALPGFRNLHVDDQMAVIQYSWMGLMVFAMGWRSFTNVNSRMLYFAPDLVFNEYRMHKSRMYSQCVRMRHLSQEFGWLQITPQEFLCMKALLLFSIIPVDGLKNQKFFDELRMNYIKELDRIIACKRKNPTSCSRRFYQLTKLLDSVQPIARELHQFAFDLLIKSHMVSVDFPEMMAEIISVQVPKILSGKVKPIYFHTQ", "test": "Antagonist activity at androgen receptor T877A mutant (unknown origin) expressed in HEK293 cells incubated for 24 hrs by luciferase reporter assay", "type": "cell-based"}, "CWR22R [14]": {"system": "CWR22R", "test": "Antiproliferative activity against human 22Rv1 cells expressing AR-v7 assessed as reduction in cell viability at 30 uM measured after 6 days by CTG assay", "type": "functional", "conditions": "time 6 day"}, "Androgen receptor [15]": {"target": "Androgen receptor (Homo sapiens, UniProt P10275, F877L)", "sequence (P10275 whole entry F877L)": "as the sequence (P10275 whole entry T878A) above, with F877L, A878T counted along it", "test": "Antagonist activity at androgen receptor F876L mutant (unknown origin) expressed in HEK293 cells incubated for 24 hrs by luciferase reporter assay", "type": "cell-based"}, "Androgen receptor [16]": {"target": "T1, Androgen receptor", "test": "Induction of AR degradation in human LNCap cells incubated for 24 hrs by sandwich ELISA analysis", "type": "cell-based"}, "[17]": {"target": "T2, Androgen receptor (Homo sapiens) (UniProt P10275)", "T2 sequence (whole entry)": "T1 sequence (P10275 whole entry)", "test": "Induction of AR degradation in human LNCap cells at 20 uM by Western blot analysis", "type": "cell-based", "conditions": "time 2-24 hrs, TDE = time-dependent effect"}, "[18]": {"target": "T3, Steroid 17-alpha-hydroxylase/17,20 lyase (Homo sapiens, UniProt P05093)", "T3 sequence (P05093 whole entry)": "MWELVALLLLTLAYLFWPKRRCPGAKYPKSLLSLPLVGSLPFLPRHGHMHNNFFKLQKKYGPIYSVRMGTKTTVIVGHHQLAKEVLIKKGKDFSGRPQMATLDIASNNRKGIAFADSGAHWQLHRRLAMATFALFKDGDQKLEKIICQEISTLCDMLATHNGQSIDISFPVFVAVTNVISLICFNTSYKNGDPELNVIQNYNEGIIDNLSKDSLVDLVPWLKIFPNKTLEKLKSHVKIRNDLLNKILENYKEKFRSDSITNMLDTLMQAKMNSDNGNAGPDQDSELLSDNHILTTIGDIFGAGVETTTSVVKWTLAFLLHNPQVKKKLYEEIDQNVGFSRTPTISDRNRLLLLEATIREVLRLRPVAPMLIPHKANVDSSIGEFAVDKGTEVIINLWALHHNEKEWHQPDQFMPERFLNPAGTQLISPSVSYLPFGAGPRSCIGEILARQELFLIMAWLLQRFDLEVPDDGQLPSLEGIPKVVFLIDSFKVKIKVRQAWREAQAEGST", "test": "Inhibition of human recombinant CYP17A1 incubated for 5 mins in presence of NADPH by LC-MS/MS analysis", "type": "ADME"}, "[19]": {"target": "T2, Androgen receptor (Homo sapiens)", "test": "Induction of AR degradation in human LNCap cells at 20 uM measured after 24 hrs by Western blot analysis", "type": "cell-based"}, "LNCaP C4-2B": {"system": "LNCaP C4-2B", "test": "Antitumor activity against enzalutamide-resisitant human C4-2B cells xenografted in castrated BALB/c nude mouse assessed as change in tumor volume at 30 mg/kg, po qd measured after 4 weeks", "type": "functional"}, "[20]": {"system": "Androgen receptor (Homo sapiens), P10275 [UNDEFINED MUTATION]", "test": "Induction of AR-v7 degradation in human 22Rv1 cells incubated for 24 hrs by Western blot analysis", "type": "cell-based", "conditions": "dose 1-20 µM, DDE = dose-dependent effect"}, "[21]": {"test": "Antagonist activity at androgen receptor W741L mutant (unknown origin) expressed in HEK293 cells incubated for 24 hrs by luciferase reporter assay", "type": "cell-based", "conditions": "Homo sapiens, HEK293, 24 h"}}, "note": "Active and inactive are the calls of the source. No cut-off for these calls is given here."}
{"smiles": "C[C@]12CC[C@H](NC(=O)c3ccncc3)CC1=CC[C@@H]1[C@@H]2CC[C@]2(C)C(n3ccnc3)=CC[C@@H]12", "values": [{"measurement": "IC50", "setting": "[1]", "value": 4990, "unit": "nM"}, {"measurement": "Tmax", "setting": "[2]", "value": 2, "unit": "h"}, {"measurement": "half-life", "setting": "[3]", "value": 10, "unit": "h"}, {"measurement": "inhibition at 10 µM", "setting": "LNCaP [4]", "value": 97, "unit": "%"}, {"measurement": "IC50", "setting": "LNCaP [5]", "value": 317, "unit": "nM"}, {"measurement": "IC50", "setting": "Androgen receptor [6]", "value": 511, "unit": "nM"}, {"measurement": "AUC(0-t) at 24 h", "setting": "[7]", "value": 28800, "unit": "ng·h/mL"}, {"measurement": "Cmax", "setting": "[8]", "value": 4500, "unit": "ng/mL"}]}
{"smiles": "CNC(=O)c1ccc(N2C(=S)N(c3ccc(C#N)c(C(F)(F)F)c3)C(=O)C2(C)C)cc1F", "note": "[ENZALUTAMIDE]", "values": [{"measurement": "inhibition (INH)", "setting": "LNCaP [4]", "value": 68.83, "unit": "%"}, {"measurement": "inhibition (INH)", "setting": "[9]", "value": 67, "unit": "%"}, {"measurement": "inhibition (INH)", "setting": "[10]", "value": 67, "unit": "%"}]}
{"smiles": "Cc1cn(C2=CC[C@H]3[C@@H]4CC=C5C[C@@H](NC(=O)c6ccncc6)CC[C@]5(C)[C@H]4CC[C@]23C)cn1", "values": [{"measurement": "IC50", "setting": "CWR22R [11]", "value": 590, "unit": "nM"}, {"measurement": "IC50", "setting": "[1]", "value": 6470, "unit": "nM"}, {"measurement": "Activity", "setting": "[12]", "value": "Non-Toxic"}, {"measurement": "IC50", "setting": "Androgen receptor [13]", "value": 209, "unit": "nM"}, {"measurement": "Tmax", "setting": "[2]", "value": 2.17, "unit": "h"}, {"measurement": "half-life", "setting": "[3]", "value": 2.8, "unit": "h"}, {"measurement": "inhibition at 10 µM", "setting": "LNCaP [4]", "value": 99.3, "unit": "%"}, {"measurement": "inhibition at 30 µM", "setting": "CWR22R [14]", "value": 37, "unit": "%"}, {"measurement": "IC50", "setting": "Androgen receptor [15]", "value": 268, "unit": "nM"}, {"measurement": "IC50", "setting": "LNCaP [5]", "value": 205, "unit": "nM"}, {"measurement": "DC50", "setting": "Androgen receptor [16]", "value": 2840, "unit": "nM"}, {"measurement": "Activity", "setting": "[17]", "value": "Tde"}, {"measurement": "IC50", "setting": "[18]", "value": 2590, "unit": "nM"}, {"measurement": "inhibition in vivo at 20 mg/kg", "setting": "[9]; Rattus norvegicus, Sprague-Dawley, 576 h", "value": 62, "unit": "%"}, {"measurement": "Activity", "setting": "[19]", "value": "Active"}, {"measurement": "T/C", "setting": "LNCaP C4-2B", "value": -14, "unit": "%"}, {"measurement": "IC50", "setting": "Androgen receptor [6]", "value": 247, "unit": "nM"}, {"measurement": "Activity", "setting": "[20]", "value": "Dde"}, {"measurement": "AUC(0-t) at 24 h", "setting": "[7]", "value": 24800, "unit": "ng·h/mL"}, {"measurement": "IC50", "setting": "[21]", "value": 490, "unit": "nM"}, {"measurement": "inhibition in vivo at 20 mg/kg", "setting": "[10]; Rattus norvegicus, Sprague-Dawley, 240 h", "value": 66, "unit": "%"}, {"measurement": "Cmax", "setting": "[8]", "value": 2670, "unit": "ng/mL"}]}
